The values that follow come from patent US20100040623A1, “NEURITOGENIC AND NEURONAL SURVIVAL PROMOTING PEPTIDES DERIVED FROM THE FAMILY OF S-100 PROTEINS” (priority 2005, published 2010).

Assay [1] has as its system primary hippocampal neurons. The assay is described as follows: Neurite outgrowth from primary hippocampal neurons. The format is cell-based, Wistar rat. The following applies: for stimulation of neurite outgrowth in vitro (conclusion): summary statement; for neurite outgrowth from hippocampal primary neurons (average neurite length): treated with various concentrations of peptide for 24 hours. The method, then: (§1) Dissociated hippocampal and cerebellar (CGN) neurons were isolated from Wistar rat embryos at embryonic day 19 or newborn rats as previously described by Rønn et al. (1999). Briefly, hippocampus was isolated from the brain in ice cold modified Krebs Ringer solution, cleared of blood vessels, roughly homogenised by chopping and then trypsinised. The dissociated cells were washed in the presence of DNAse 1 and soybean trypsin inhibitor. Postnatal hippocampal neurons were plated at a density of 10,000 cells/cm^2 on uncoated 8-well permanox Lab-Tek chamber slides in Neurobasal medium supplemented with 0.4% (w/v) bovine serum albumin (BSA; Sigma-Aldrich), 2% (v/v) B27 Neurobasal supplement, 1% (v/v) glutamax, 100 U/ml penicillin, 100 μg/ml streptomycin and 2% 1 M HEPES (all from Gibco, BRL). After 24 hours, the neurons were fixed with 4% (v/v) formaldehyde for 20 minutes and thereafter immunostained using primary rabbit antibodies against GAP-43 and Alexa Fluor secondary goat anti-rabbit Ig antibodies. Images of at least 200 neurons for each group in each individual experiment were obtained systematically by computer assisted fluorescence microscopy as previously described (Rønn et al., 2000). Briefly, a Nikon Diaphot inverted microscope with a Nikon Plan 20× objective (Nikon, Tokyo, Japan) coupled to a video camera (Grundig Electronics, Germany) was used for recordings. A software package Prima developed at the Protein Laboratory (Copenhagen, Denmark) was used to make a stereologically based determination of neurite length (Rønn et al., 2000).
(§2) Neuronal cell cultures were treated with various concentrations of a peptide for 24 hours, and the average neurite length was evaluated as described above. […] Thus peptide segments number 3 and number 6 from various members of the S100 protein family may represent potent pharmacological tools to induce neuronal differentiation and axon regeneration.

The next assay relates to cerebellar (CGN) neurons. As to the kind of experiment: Neurite outgrowth from primary cerebellar neurons. The format is cell-based, Wistar rat. The conditions noted are these: treated with various concentrations of peptide for 24 hours. As for the experimental part: as §1, §2
For assay [2], the system named is kainic acid (KA)-induced toxicity. The assay is described as follows: Kainic acid-induced toxicity (seizures, mortality). The format is in vivo, Male C57BL/6J mice. The following applies: peptide 10 mg/kg daily from day -2; for amount of seizures: 20 mg/kg KA; for profile of seizures (severity): 30 mg/kg KA. As for the experimental part:
Male C57BL/6J mice were injected with 10 mg/kg H3 or H6 daily starting from day-2 prior to kainic acid treatment. At day 0 the animals were injected 30 mg/kg KA in order to induce severe seizures, or 20 mg/kg KA in order to induce mild seizures and prevent excessive mortality. Latency and seizure severity were scored for 2 h postinjection by using a numerical scale of 0 to 6: 0—immobility; 1—facial automatism; 2—head nodding; 3—forelimb clonus; 4—rearing; 5—generalized convulsions; 6—death. Control animals received s.c injection of vehicle.

For the next assay, the system named is sciatic nerve crush. As to the kind of experiment: Functional recovery after sciatic nerve crush (Sciatic Function Index). Format: in vivo, Wistar rats. The conditions noted are these: 10 mg/kg daily for 18 days. As for the experimental part:
Nerve crush of sciatic nerve was performed as follows. Before surgery, animals were anesthetized with subcutaneous injection of a Fenthanil/Droperidol/Medazolam (0.8 ml per 100 g). The right hind limb was shaved and swabbed with antiseptic solution. A longitudinal cutaneous incision was made in the back of the thigh. Dissection was carried out along a plane separating the hamstring and gluteal muscles to expose the sciatic nerve. Careful dissection was performed to isolate the sciatic nerve from the surrounding connective tissue over a length of 2 to 2.5 cm. The sciatic nerve was unilaterally crushed twice in the same place (0.5 cm upper trifurcation) for a 30 sec using a locking surgical needle holder. The place of the crush was labelled with 5-0 suture material attached to the epineurium. […] The bottom of the corridor was lined with paper, upon which the hind pawprints of the rat were recorded. […] Several prints of each foot were inspected, and the best corresponding pair of prints from experimental (E) and normal (N) legs were measured to the nearest millimeter, using a caliper. Three footprint parameters were measured: distance from the heel to the third toe, print length (PL), the distance between the first and fifth toe, toe spread (TS), and distance between the second and fourth toe, the intermediary toe spread (IT). […]

Another assay deals with ERK. As to the kind of experiment: Phosphorylation of ERK in primary hippocampal neurons (PAGE method). The format is cell-based. The conditions noted are these: neurons cultured 6 hours, stimulated 15 minutes. As for the experimental part:
(§3) Primary hippocampal neurons cultured for 6 hours were stimulated with H3 or H6 for 15 minutes. Thereafter the phosphorylation level of the three intracellular messengers involved in neurite outgrowth and survival, Akt, CREB, and ERK, was determined using the PAGE method.

The subject of assay [3] is cultured hippocampal neurons. The assay is described as follows: Intracellular Ca2+ concentration, fura-2 loaded neurons. The following applies: fura-2 ratiometric dye. Format: cell-based.
In another assay the test system is Akt. As to the kind of experiment: Phosphorylation of Akt in primary hippocampal neurons (PAGE method). The format is cell-based. The conditions noted are these: neurons cultured 6 hours, stimulated 15 minutes. The method, then: as §3
Assay [4] concerns focal brain injury on the right fronto-parietal cortex. As to the kind of experiment: Traumatic brain injury (cryolesion): TUNEL, GFAP, PCNA. The format is in vivo, Rats and mice. The conditions noted are these: 10 mg/kg s.c. at day -1, 1 and 2; post-lesion day 4. As for the experimental part:
A focal brain injury on the right fronto-parietal cortex was made by applying a piece of dry-ice (−78° C.) directly onto the skull for 30 seconds in mice and 60 seconds in rats, as previously described in details (Penkowa et al., 2003).
Histochemistry and immunohistochemistry were performed on sections cut from organs taken from fixated animals. Rats and mice were deeply anesthetized with Brietal and flushed by cardiac perfusion with saline containing heparine (0.9% NaCl, 3 ml/L 5000IU heparine) for 2 minutes followed by fixation with Zamboni's fixative (pH 7.4) for 4-8 minutes depending on the size of the animal. For immunohistochemical investigation, brain were dissected and postfixed in Zamboni's for 2-3 hours, dehydraded in graded alcohol followed by xylol and subsequently embedded in paraffin before being cut in 3 μm frontal sections throughout the entire area of the cryo lesion. For heat-induced epitope retrieval, the sections were boiled in citrate buffer (pH 6 or 9) in a microwave oven for 10 minutes followed by incubation in 10% goat serum (In Vitro, Fredensborg, DK) or donkey serum (code BP 005.1; The Binding Site, Birmingham, UK) in tris buffered saline (TBS)/Nonidet P-40 (0.01%) for 30 minutes at room temperature. Sections with mouse tissue used for incubation with monoclonal mouse-derived antibodies were also incubated with Blocking Solutions A+B from the HistoMouse-SP kit to quench endogenous mouse IgG (Zymed, Calif., USA).
Following treatment as described above, sections were incubated overnight at 5° C. with one of the following primary antibodies: polyclonal rabbit anti-cow glial fibrillary acidic protein (GFAP) 1:250 (a marker for astrocytes; DakoCytomation); monoclonal mouse anti-rat proliferating cellular nuclear antigen (PCNA) 1:10 (marking proliferating cell nuclear antigen/cell proliferation; DakoCytomation). The primary antibody was detected with biotynilated secondary antibodies, incubated with streptavidinbiotin-peroxidase complex for 30 min.
Terminal deoxynucleotidyl transferase (TdT)-mediated deoxyuridine triphosphate (dUTP)-biotin nick end labelling (TUNEL) was performed using the Fragment End Labeling (FragEL™) Detection Kit (Calbiochem, USA, code QIA33). The FragEL kit contains all the materials used below and each step was performed according to the manufacturer's recommendations. The tissue was processed and rehydrated as mentioned above, and sections were incubated with 20 µg/ml proteinase K for 20 min to strip off nuclear proteins. After immersion in equilibration buffer for 20 min, sections were incubated with TdT and biotin-labeled deoxynucleotids (dNTP-biotin) in a humified chamber at 37° C. for 1.5 hr. This was followed by wash buffer and the stop solution for 5 min at room temperature to stop the reaction. After washing in TBS and incubation in blocking buffer for 10 min, the sections were incubated with Peroxidase-Streptavidin for 30 min and afterwards, DAB was used as chromogen. The sections were counterstained with methyl-green. Negative control sections were treated similarly but incubated in the absence of TdT enzyme or dNTP-biotin or Peroxidase-Streptavidin. We also compared our sections with positive control slides provided in the FragEL Detection Kit. Furthermore, TUNEL was compared with other stainings for apoptosis (activated caspase-3, cytochrome-c and TNF[…]-R1). In addition, the morphologic criteria for apoptosis, i.e. cell shrinkage, formation of apoptotic bodies, membrane blebbing, no loss of cellular integrity, compaction of chromatin into uniformly dense masses, were evaluated.
In addition to morphological evaluation, quantification (cellular counts) of some of the variables, i.e. GFAP-positive cells, the area of GFAP-immunoreactivity, % of TUNEL-positive cells, % of proliferating cells, were analyzed. The analysis was carried out from the penumbra area of 3 μm brain sections for statistical analysis of the results. […]

The next assay deals with CREB. The assay is described as follows: Phosphorylation of CREB in primary hippocampal neurons (PAGE method). Format: cell-based. The conditions noted are these: neurons cultured 6 hours, stimulated 15 minutes. As for the experimental part:
as §3

In a further assay the test system is hippocampal neurons. The conditions noted are these: Novitskaya et al., 2000; cited from earlier work.

Turning to “HYHTHKE [A12H6, tetrameric peptide (hekatone) representing region 6 of S100A12]”, in [1], the “stimulation of neurite outgrowth in vitro (conclusion)” value (“stimulation of neurite outgrowth” below) is recorded as “potent stimulators of neurite outgrowth”.

Regarding “KQLLTKELANTIKNIK [A12H3, tetrameric peptide (hekatone) representing region 3 of S100A12]”, the “neurite outgrowth from hippocampal primary neurons (average neurite length)” value in assay [1] is “strongly induced neurite outgrowth”. For the same substance, in the assay on cerebellar (CGN) neurons, the “neurite outgrowth from cerebellar primary neurons (average neurite length)” value was “strongly induced neurite outgrowth”.

Consider “KELLTRELPSFLGKRT [A4H3, tetrameric peptide (hekatone) representing region 3 of S100A4]”, for which, in [2], the amount of seizures result is reported as “decreased the amount of seizures” and the “profile of seizures (severity)” value is “towards less severe seizures types”. In addition, in [1], the “stimulation of neurite outgrowth” value is given as “potent stimulators of neurite outgrowth” and the “neurite outgrowth from hippocampal primary neurons (average neurite length)” value is listed as “strongly induced neurite outgrowth”. In addition, the “recovery of the motor function of the injured limb (SFI)” value in the assay on sciatic nerve crush is on record as “strongly promoted the recovery”. Also, the “phosphorylation level of ERK” value in the assay with ERK is “significantly increased phosphorylation”. Besides, the “level of intracellular Ca2+ ([Ca2+]i)” value in assay [3] is reported as “but not H3 significantly increased”. In the assay on Akt, the “phosphorylation level of Akt” value is given as “significantly increased phosphorylation”. Besides, the “neurite outgrowth from cerebellar primary neurons (average neurite length)” value in the assay with cerebellar (CGN) neurons is recorded as “strongly induced neurite outgrowth”. Further, in assay [4], the “area of GFAP-immunoreactivity (astrogliosis)” value is “increase”; the “cell death (apoptosis, DNA fragmentation/TUNEL) in the cortex induced by cryolesion” value is given as “protected cells in the cortex from cell death”; the “number of GFAP-positive cells (astrogliosis)” value was “increase”. Also, the “phosphorylation level of CREB” value with CREB is listed as “significantly increased phosphorylation”.

As for “NEFFEGFPDKQPRKK [A4H6, tetrameric peptide (hekatone) representing region 6 of S100A4]”, in assay [2], the amount of seizures result is listed as “decreased the amount of seizures” and the “profile of seizures (severity)” value is listed as “towards less severe seizures types”. In [1], the “stimulation of neurite outgrowth” value is listed as “potent stimulators of neurite outgrowth” and the “neurite outgrowth from hippocampal primary neurons (average neurite length)” value was “strongly induced neurite outgrowth”. Besides, the “phosphorylation level of ERK” value in the assay with ERK is “significantly increased phosphorylation”. The “level of intracellular Ca2+ ([Ca2+]i)” value in assay [3] was “significantly increased”. Moreover, in the assay on Akt, the “phosphorylation level of Akt” value was “significantly increased phosphorylation”. Further, in the assay on cerebellar (CGN) neurons, the “neurite outgrowth from cerebellar primary neurons (average neurite length)” value is reported as “strongly induced neurite outgrowth”. In [4], the “area of GFAP-immunoreactivity (astrogliosis)” value was “increase”; the “cell death (apoptosis, DNA fragmentation/TUNEL) in the cortex induced by cryolesion” value is “protected cells in the cortex from cell death”; the “number of GFAP-positive cells (astrogliosis)” value is reported as “increase”. Moreover, in the assay on CREB, the “phosphorylation level of CREB” value is listed as “significantly increased phosphorylation”.

Regarding “S100A4: S100 family Ca2+-binding protein S100A4 (also termed Mts1)”, in the assay on hippocampal neurons, the “neurite outgrowth in hippocampal neurons in vitro” value is “potent promoter of neurite outgrowth”.

With “DEAAFQKLMSNLD [A4H4, tetrameric peptide (hekatone) representing region 4 of S100A4]”, the “proliferation of neural progenitor cells” value in assay [4] is on record as “strongly induced proliferation”.
